These results are taken from US12110293B2, “Substituted triazolo quinoxaline derivatives” (GRÜNENTHAL GMBH, priority 2018, dated 2024).

Where only a bound is given, the exact number is not on record here.

For this assay, the target named is T1, glucocorticoid receptor (Homo sapiens, UniProt P04150).
T1 construct: expressed in transfected cells
T1 sequence (P04150 524-758 limits assumed): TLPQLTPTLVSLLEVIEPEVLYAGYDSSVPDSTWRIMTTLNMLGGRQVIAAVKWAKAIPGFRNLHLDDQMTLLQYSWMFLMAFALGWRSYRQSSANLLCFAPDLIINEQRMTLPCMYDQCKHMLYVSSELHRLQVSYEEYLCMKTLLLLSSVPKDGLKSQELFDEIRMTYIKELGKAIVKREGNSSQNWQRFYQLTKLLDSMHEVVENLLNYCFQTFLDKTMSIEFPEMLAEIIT
Briefly: Agonistic mode of action on the glucocorticoid receptor (CHO-Gal4/GR luciferase reporter cell line). In kind it is cell-based. As to conditions: range class observed in the agonistic assay or the antagonistic assay (CHO-Gal4/GR reporter cells); table does not say which mode applies per example. An excerpt:
Potential selective glucocorticoid receptor modulators of this intervention can be tested for modulation of the activity of the glucocorticoid receptor using cell-based assays. These assays involve a Chinese hamster ovary (CHO) cell line which contains fragments of the glucocorticoid receptor as well as fusion proteins. The glucocorticoid receptor fragments used are capable of binding the ligand (e.g. beclomethasone) to identify molecules that compete for binding with glucocorticoid receptor ligands. In more detail, the glucocorticoid receptor ligand binding domain is 25 fused to the DNA binding domain (DBD) of the transcriptionfactor GAL4 (GAL4 DBD-GR) and is stably integrated into a CHO cell line containing a GAL4-UAS-Luciferase reporter construct. […] After cell lysis the luminescence that is produced by luciferase after addition of the substrate is detected and EC50 or IC50 values can be calculated. Engagement of molecules which induce gene expression via glucocortocoid receptor binding to the DNA leads to expression of the luciferase gene under the control of the fusion protein GAL4 DBD-GR and therefore to a dose-dependent increase of the luminescence signal. Binding of molecules which repress beclomethasone-induced gene expression of the luciferase gene under the control of the fusion protein GAL4 DBD-GR leads to a dose-dependent reduction of the luminescence signal.
Biological Assays Agonistic Mode of Action on the Glucocorticoid Receptor
The reporter cell line CHO-Gal4/GR consisted of a Chinese hamster ovary (CHO) cell line (Leibniz Institute DSMZ—German Collection of Microorganisms and Cell CuItures GmbH: ACC-110) containing a firefly luciferase gene under the control of the GR ligand binding domain fused to the DNA binding domain (DBD) of GAL4 (GAL4 DBD-GR) stably integrated into CHO cells. This cell line was established by stable transfection of CHO cells with a GAL4-UAS-Luciferase reporter construct. In a subsequent step the ligand binding domain of the GR cloned into pIRES2-EGFP-GAL4 containing the DNA binding domain of GAL4 from pFA-AT2 was transfected. This fusion construct activated firefly luciferase expression under the control of a multimerized GAL4 upstream activation sequence (UAS). The signal of the emitted luminescence was recorded by the FLIPR^TETRA. This allowed for specific detection of ligand-induced activation of the GR and therefore for the identification of compounds with agonistic properties. The GAL4/UAS reporter was premixed with a vector that constitutively expressed Renilla luciferase, which served as an internal positive control for transfection efficiency.
The complete culture medium for the assay was: • DMEM F-12 (1:1) MIXTURE (LONZA cat. N°: BE04-687F/U1) 500 mL • 5 mL of 100 mM Sodium Pyruvate (LONZA cat. N°: BE12-115E) • 25 mL of 7.5% Sodium Bicarbonate (LONZA cat. N° BE17-613E) • 6.5 mL of 1 M Hepes (LONZA cat. N°: BE17-737E) • 5 mL of 100× Penicillin/Streptomycin (LONZA cat. N° DE17-602E) • 50 mL of Fetal Bovine Serum (Euroclone cat. N° ECS 0180L) • 0.25 mL of 10 mg/mL Puromycin (InvivoGen cat.: ant-pr-1) • 0.5 mL of 100 mg/mL Zeocin (InvivoGen cat.: ant-zn-1)
Cryo-preserved CHO-Gal4/GR cells were suspended in complete medium and 5000 cells/25 μl/well were seeded into the wells of 384-well polystyrene assay plates (Thermo Scientific, cat. #4332) and cultured at 37° C., 5% CO2 and 95% humidity. After 24 hours growth medium was carefully removed and replaced by 30 μl Opti-MEM (GIBCO, cat. #31985062) as assay buffer. To test the compounds an 8-point half-log compound dilution curve was generated in 100% DMSO starting from a 2 mM stock and compounds were then diluted 1:50 in Opti-MEM. 10 μl of compounds were then added to the wells containing 30 μl Opti-MEM resulting in a final assay concentration range from 10 μM to 0.003 μM in 0.5% DMSO. Compounds were tested at 8 concentrations in quadruplicate data points.
(In general: A reporter such as luciferase makes a cellular process visible.)
Turning to `Cc1c[nH]c2c(-c3c(F)cc4c(c3F)-n3c(Cc5ccccc5)nnc3C(C)(C)N4)cccc12` [Example 68, 1-Benzyl-7,9-difluoro-4,4-dimethyl-8-(3-methyl-1H-indol-7-yl)-5H-[1,2,4]triazolo[4,3-a]quinoxaline], the IC50 or EC50 (agonist or antagonist mode not specified) lay within 0.1 to 1 µM. Next, `CC#CCc1nnc2n1-c1c(cc(F)c(-c3cc(F)cc4c(C)c[nH]c34)c1F)NC2(C)C` [Example 69, 1-(but-2-yn-1-yl)-7,9-difluoro-8-(5-fluoro-3-methyl-1H-indol-7-yl)-4,4-dimethyl-4,5-dihydro-[1,2,4]triazolo[4,3-a]quinoxaline]: below 0.1 µM; `CC#CCc1nnc2n1-c1c(cc(F)c(-c3cccc4c(C)c[nH]c34)c1F)NC2(C)C` [Example 70, 1-(but-2-yn-1-yl)-7,9-difluoro-4,4-dimethyl-8-(3-methyl-1H-indol-7-yl)-4,5-dihydro-[1,2,4]triazolo[4,3-a]quinoxaline]: below 0.1 µM; `Cc1c[nH]c2c(-c3c(F)cc4c(c3F)-n3c(Cc5cccnc5)nnc3C(C)(C)N4)cc(F)cc12` [Example 73, 7,9-Difluoro-8-(5-fluoro-3-methyl-1H-indol-7-yl)-4,4-dimethyl-1-(pyridin-3-yl-methyl)-5H-[1,2,4]triazolo[4,3-a]quinoxaline]: 0.1 to 1 µM. The value for `Cc1c[nH]c2c(-c3c(F)cc4c(c3F)-n3c(Cc5ccccn5)nnc3C(C)(C)N4)cc(F)cc12` [Example 74, 7,9-Difluoro-8-(5-fluoro-3-methyl-1H-indol-7-yl)-4,4-dimethyl-1-(pyridin-2-yl-methyl)-5H-[1,2,4]triazolo[4,3-a]quinoxaline] was below 0.1 µM; that for `Cc1c[nH]c2c(-c3c(F)cc4c(c3F)-n3c(Cc5ccccn5)nnc3C(C)(C)N4)cccc12` [Example 75, 7,9-Difluoro-4,4-dimethyl-8-(3-methyl-1H-indol-7-yl)-1-(pyridin-2-yl-methyl)-5H-[1,2,4]triazolo[4,3-a]quinoxaline] was below 0.1 µM. The value for `CC#Cc1c[nH]c2c(-c3c(F)cc4c(c3C)-n3c(COC)nnc3C(C)(C)N4)cc(F)cc12` [Example 76, 7-fluoro-8-(5-fluoro-3-(prop-1-yn-1-yl)-1H-indol-7-yl)-1-(methoxymethyl)-4,4,9-trimethyl-4,5-dihydro-[1,2,4]triazolo[4,3-a]quinoxaline] was below 0.1 µM; that for `CC#Cc1c[nH]c2c(-c3c(F)cc4c(c3C)-n3c(CO)nnc3C(C)(C)N4)cc(F)cc12` [Example 77, (7-fluoro-8-(5-fluoro-3-(prop-1-yn-1-yl)-1H-indol-7-yl)-4,4,9-trimethyl-4,5-dihydro-[1,2,4]triazolo[4,3-a]quinoxalin-1-yl)methanol] was 0.1 to 1 µM. `CC#Cc1c[nH]c2c(-c3c(F)cc4c(c3C)-n3c(C(C)O)nnc3C(C)(C)N4)cc(F)cc12` (stereo not drawn) [Example 78]: the IC50 or EC50 (agonist or antagonist mode not specified) fell in the range of 1 to 15 µM.

Take `CC#Cc1c[nH]c2c(-c3c(F)cc4c(c3C)-n3c(CCOC)nnc3C(C)(C)N4)cc(F)cc12` [Example 79, 7-fluoro-8-(5-fluoro-3-(prop-1-yn-1-yl)-1H-indol-7-yl)-1-(2-methoxyethyl)-4,4,9-trimethyl-4,5-dihydro-[1,2,4]triazolo[4,3-a]quinoxaline]: the IC50 or EC50 (agonist or antagonist mode not specified) is 1 to 15 µM. As to `Cc1c(-c2cc(F)cc3c2ccn3S(C)(=O)=O)c(C(F)(F)F)cc2c1-n1c(C)nnc1C(C)(C)N2` [Example 83, 8-(6-Fluoro-1-methylsulfonyl-1H-indol-4-yl)-1,4,4,9-tetramethyl-7-(trifluoromethyl)-5H-[1,2,4]triazolo[4,3-a]quinoxaline], the IC50 or EC50 (agonist or antagonist mode not specified) is 1 to 15 µM. `Cc1nnc2n1-c1c(cc(F)c(-c3cccc4c(C5CC5)c[nH]c34)c1Cl)NC2(C)C` [Example 85, 9-Chloro-8-(3-cyclopropyl-1H-indol-7-yl)-7-fluoro-1,4,4-trimethyl-5H-[1,2,4]triazolo[4,3-a]quinoxaline] returned an IC50 or EC50 (agonist or antagonist mode not specified) of 0.1 to 1 µM.
